Data published in patent US7119111B2, “2-oxo-1,3,4-trihydroquinazolinyl derivatives and methods of use” (Amgen, Inc., priority 2002, dated 2006).

Legend:
[1] = Cell Proliferation Assay (BrdU incorporation); type: cell-based; settings: Homo sapiens; 48 h incubation, BrdU labeling; cell line not specified; read-out: inhibited cell proliferation IC50
Protocol: Cell proliferation was measured using a calorimetric immunoassay (B/M Roche #164 7229), based on the measurement of pyrimidine analog BrdU incorporation during DNA synthesis in proliferating cells. Cells, e.g., human PC-3 prostate carconima cells, huFSF normal human foreskin fibroblast cells, HCT 116 human colon carcinoma cells or HT 29 human colon carcinoma cells, were cultured in a 96-well plate for 24 h, until a cell count of 3×10^3 to 6×10^3 cells per well in duplicate wells were achieved, in a well volume of 200 μl. The media was changed and 1 μl of 200× control inhibitors or compounds was added to each well. Cells are incubated for 48 h at 37° C. The cells were labeled with BrdU for 4 h at 37° C. The labeling medium was removed and in one step, the cells were fixed and the DNA was denatured (30 min at RT). Anti-BrdU-POD antibody was added to bind to the BrdU incorporated in newly synthesized cellular DNA (60–90 min at RT). The cells were washed 3×with washing buffer, substrate (100 μl) was added and the cells were incubated for 10 min at RT. The substrate reaction was stopped by adding 25 μl of 1M H2SO4. The amount of BrdU incorporated was quantified by measuring the absorbance at 450 nm using ELISA reader. IC50's were calculated using GraFit (Sigma).

Structure (SMILES)	IC50 [1] [µM]	melting point [°C]
O=C1Nc2cc(-c3cccc(OCCN4CCCCC4)c3)ccc2CN1c1csc(-c2ccncc2)n1 [Example 32, 7-[3-(2-Piperidylethoxy)phenyl]-3-(2-(4-pyridyl)(1,3-thiazol-4-yl))-1,3,4-trihydroquinazolin-2-one]	< 5	206 to 208
O=C1Nc2cc(-c3cccc(O)c3)ccc2CN1c1csc(-c2ccncc2)n1 [Example 31, 7-(3-Hydroxyphenyl)-3-(2-(4-pyridyl) (1,3-thiazol-4-yl))-1,3,4-trihydroquinazolin-2-one]	< 5	320 to 322
O=C1Nc2cccc(-c3ccccc3)c2CN1c1csc(-c2ccncc2)n1 [Example 34, 5-Phenyl-3-(2-(4-pyridyl)(1,3-thiazol-4-yl))-1,3,4-trihydroquinazolin-2-one]	< 5	–
O=C1Nc2cccc(CN3CCCCC3)c2CN1c1csc(-c2ccncc2)n1 [Example 15, 5-(Piperidylmethyl)-3-(2-(4-pyridyl)(1,3-thiazol-4-yl))-1,3,4-trihydroquinazolin-2-one]	< 5	–
COC(=O)c1cccc2c1CN(c1csc(-c3ccncc3)n1)C(=O)N2 [Example 2, Methyl 2-oxo-3-(2-(4-pyridyl)(1,3-thiazol-4-yl))-1,3,4-trihydroquinazoline-5-carboxylate]	< 5	–
